The text below walks through data of US8853213B2, “Bicyclic compound for modulating G protein-coupled receptors” (Hanmi Pharm. Co., Ltd, priority 2011, dated 2014).

What is called EC50 is the concentration needed to bring the measured effect to its halfway point.

The target in this assay is T1, GPR119 (Homo sapiens, UniProt Q8TDV5).
T1 construct: host or cells: CHO-K1 (CRE-bla reporter, doxycycline-induced)
T1 sequence (Q8TDV5 1-335): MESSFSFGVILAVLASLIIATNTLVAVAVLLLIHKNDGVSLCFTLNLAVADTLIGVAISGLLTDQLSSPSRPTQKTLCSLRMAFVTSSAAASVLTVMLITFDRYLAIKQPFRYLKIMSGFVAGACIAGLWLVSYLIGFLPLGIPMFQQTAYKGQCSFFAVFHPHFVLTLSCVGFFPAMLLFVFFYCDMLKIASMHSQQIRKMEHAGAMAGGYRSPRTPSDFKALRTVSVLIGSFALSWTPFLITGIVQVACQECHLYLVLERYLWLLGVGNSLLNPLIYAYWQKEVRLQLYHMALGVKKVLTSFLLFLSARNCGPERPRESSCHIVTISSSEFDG
Briefly: Controlling Effect of GPR119 in CRE-bla CHO-K1 Cells (EC50). The assay is classed as cell-based. Conditions: GPR119 CRE-bla CHO-K1 cell line, 5 hr incubation with compound, β-lactamase LiveBLAzer-FRET B/G readout; read-out: controlling effect against GPR119 in CRE-bla CHO-K1 cell line (EC50). The method, boiled down: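 CHO-K1 cells carrying GPR119 and a CRE-β-lactamase reporter, induced with doxycycline for 16-20 h at 37° C, then exposed to compounds in 10-fold dilutions for 5 h. CCF4-AM FRET substrate added for 2 h at room temperature; blue/green fluorescence (409 ex, […]) read and EC50 derived.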
In the case of `CC(C)(C)c1noc(N2CCC(Oc3ncnc4c(-c5ccc(S(C)(=O)=O)cc5)csc34)CC2)n1` [Example 53, 3-tert-butyl-5-(4-(7-(4-methanesulfonyl-phenyl)thieno[3,2-d]pyrimidin-4-yloxy)piperidin-1-yl)-1,2,4-oxadiazole], the EC50 is under 100 nM. In the case of `CS(=O)(=O)c1ccc(-c2csc3c(OC4CCN(c5nc(C6CCC6)no5)CC4)ncnc23)cc1` [Example 54, 3-cyclobutyl-5-(4-(7-(4-methanesulfonyl-phenyl)thieno[3,2-d]pyrimidin-4-yloxy)piperidin-1-yl)-1,2,4-oxadiazole], the 50% effective concentration (EC50) was under 100 nM.

With `CCc1cnc(N2CCC(Oc3ncnc4c(-c5ccc(S(C)(=O)=O)cc5)csc34)CC2)nc1` [Example 55, 4-(1-(5-ethylpyrimidin-2-yl)piperidin-4-yloxy)-7-(4-methanesulfonyl-phenyl)thieno[3,2-d]pyrimidine], the EC50 was under 100 nM. Under `CS(=O)(=O)c1ccc(-c2csc3c(OC4CCN(c5ncc(C6CC6)cn5)CC4)ncnc23)cc1` [Example 56, 4-[1-(5-cyclopropyl-pyrimidin-2-yl)-piperidin-4-yloxy]-7-(4-methanesulfonyl-phenyl)-thieno[3,2-d]pyrimidine] stands under 100 nM. Under `CCc1cnc(N2CCC(Oc3ncnc4c(-c5ccc(S(C)(=O)=O)cc5)csc34)C2)nc1` (centres unmarked) [Example 57, 4-[1-(5-ethylpyrimidin-2-yl)-pyrrolidin-3-yloxy]-7-(4-methanesulfonyl-phenyl)-thieno[3,2-d]pyrimidine] stands under 100 nM. Turning to `CC(C)c1noc(N2CCC(Oc3ncnc4c(-c5ccc(S(C)(=O)=O)cc5)csc34)C2)n1` (centres unmarked) [Example 58, 4-[1-(3-isopropyl-[1,2,4]oxadiazol-5-yl)-pyrrolidin-3-yloxy]-7-(4-methanesulfonyl-phenyl)-thieno[3,2-d]pyrimidine], the EC50 was in the range of 100 to 1000 nM. As for `CS(=O)(=O)c1ccc(-c2csc3c(OC4CCN(c5nccc(C(F)(F)F)n5)CC4)ncnc23)cc1` [Example 59], the 50% effective concentration (EC50) was over 1000 nM. Consider `CC(C)c1noc(N2CCC(Oc3ncnc4c(-c5ccc(S(C)(=O)=O)cc5F)csc34)CC2)n1` [Example 60, 7-(2-fluoro-4-methanesulfonyl-phenyl)-4-[1-(3-isopropyl-[1,2,4]oxadiazol-5-yl)piperidin-4-yloxy]thieno[3,2-d]pyrimidine], for which the half-maximal effective concentration (EC50) is under 100 nM. For the molecule `CCc1noc(N2CCC(Oc3ncnc4c(-c5ccc(S(C)(=O)=O)cc5F)csc34)CC2)n1` [Example 61, 3-ethyl-5-(4-(7-(2-fluoro-4-methanesulfonyl-phenyl)thieno[3,2-d]pyrimidin-4-yloxy)piperidin-1-yl)-1,2,4-oxadiazole], the 50% effective concentration (EC50) is under 100 nM. For the molecule `CCC(C)c1noc(N2CCC(Oc3ncnc4c(-c5ccc(S(C)(=O)=O)cc5F)csc34)CC2)n1` (centres unmarked) [Example 62, 3-sec-butyl-5-(4-(7-(2-fluoro-4-methanesulfonyl-phenyl)thieno[3,2-d]pyrimidin-4-yloxy)piperidin-1-yl)-1,2,4-oxadiazole], the EC50 is under 100 nM. For `CS(=O)(=O)c1ccc(-c2csc3c(OC4CCN(c5nc(C6CC6)no5)CC4)ncnc23)c(F)c1` [Example 63, 7-(2-fluoro-4-methanesulfonyl-phenyl)-4-[1-(3-cyclopropyl-[1,2,4]oxadiazol-5-yl)piperidin-4-yloxy]thieno[3,2]pyrimidine], the concentration giving a half-maximal response (EC50) is under 100 nM. As for `CS(=O)(=O)c1ccc(-c2csc3c(OC4CCN(c5nc(-c6ccccc6)no5)CC4)ncnc23)c(F)c1` [Example 64, 5-(4-(7-(2-fluoro-4-methanesulfonyl-phenyl)thieno[3,2-d]pyrimidin-4-yloxy)piperidin-1-yl)-3-phenyl-1,2,4-oxadiazole], the 50% effective concentration (EC50) was under 100 nM. As for `CS(=O)(=O)c1ccc(-c2csc3c(OC4CCN(c5nc(-c6ccc(F)cc6)no5)CC4)ncnc23)c(F)c1` [Example 65, 5-(4-(7-(2-fluoro-4-methanesulfonyl-phenyl)thieno[3,2-d]pyrimidin-4-yloxy)piperidin-1-yl)-3-(4-fluorophenyl)-1,2,4-oxadiazole], the figure is under 100 nM. Regarding `CS(=O)(=O)c1ccc(-c2csc3c(OC4CCN(c5nc(-c6ccncc6)no5)CC4)ncnc23)c(F)c1` [Example 66, 5-(4-(7-(2-fluoro-4-methanesulfonyl-phenyl)thieno[3,2-d]pyrimidin-4-yloxy)piperidin-1-yl)-3-(pyridin-4-yl)-1,2,4-oxadiazole], the half-maximal effective concentration (EC50) is under 100 nM. As for `CS(=O)(=O)c1ccc(-c2csc3c(OC4CCN(c5nc(-c6cccnc6)no5)CC4)ncnc23)c(F)c1` [Example 67, 5-(4-(7-(2-fluoro-4-methanesulfonyl-phenyl)thieno[3,2-d]pyrimidin-4-yloxy)piperidin-1-yl)-3-(pyridin-3-yl)-1,2,4-oxadiazole], the EC50 is under 100 nM.

On to `CS(=O)(=O)c1ccc(-c2csc3c(OC4CCN(c5nc(-c6cnccn6)no5)CC4)ncnc23)c(F)c1` [Example 68, 5-(4-(7-(2-fluoro-4-methanesulfonyl-phenyl)thieno[3,2-d]pyrimidin-4-yloxy)piperidin-1-yl)-3-(pyrazin-2-yl)-1,2,4-oxadiazole], for which the EC50 fell in the range of 100 to 1000 nM.

As to `CS(=O)(=O)c1ccc(-c2csc3c(OC4CCN(c5nc(CC6CC6)no5)CC4)ncnc23)c(F)c1` [Example 69, 7-(2-fluoro-4-methanesulfonyl-phenyl)-4-[1-(3-cyclopropylmethyl-[1,2,4]oxadiazol-5-yl)piperidin-4-yloxy]thieno[3,2-d]pyrimidine], the EC50 is under 100 nM. As for `CS(=O)(=O)c1ccc(-c2csc3c(OC4CCN(c5nc(C6CCCC6)no5)CC4)ncnc23)c(F)c1` [Example 70, 7-(2-fluoro-4-methanesulfonyl-phenyl)-4-[1-(3-cyclopentyl-[1,2,4]oxadiazol-5-yl)piperidin-4-yloxy]thieno[3,2-d]pyrimidine], the figure is under 100 nM; as for `CC(C)(C)c1noc(N2CCC(Oc3ncnc4c(-c5ccc(S(C)(=O)=O)cc5F)csc34)CC2)n1` [Example 71, 7-(2-fluoro-4-methanesulfonyl-phenyl)-4-[1-(3-t-butyl-[1,2,4]oxadiazol-5-yl)piperidin-4-yloxy]thieno[3,2-d]pyrimidine], under 100 nM; as for `CC(C)(C)OC(=O)N1CCC(Oc2ncnc3c(-c4ccc(S(C)(=O)=O)cc4F)csc23)CC1` [Example 72, tert-butyl 4-(7-(2-fluoro-4-methanesulfonyl-phenyl)thieno[3,2-d]pyrimidin-4-yloxy)piperidin-1-carboxylate], under 100 nM. For the molecule `CC(C)OC(=O)N1CCC(Oc2ncnc3c(-c4ccc(S(C)(=O)=O)cc4F)csc23)CC1` [Example 73, isopropyl 4-(7-(2-fluoro-4-methanesulfonyl-phenyl)thieno[3,2-d]pyrimidin-4-yloxy)piperidin-1-carboxylate], the EC50 is under 100 nM. On to `CN1CCC(Oc2ncnc3c(-c4ccc(S(C)(=O)=O)cc4F)csc23)CC1` [Example 74, 7-(2-fluoro-4-methanesulfonyl-phenyl)-4-[1-methylpiperidin-4-yloxy]thieno[3,2-d]pyrimidine], for which the EC50 is over 1000 nM. Take `CS(=O)(=O)c1ccc(-c2csc3c(OC4CCN(C#N)CC4)ncnc23)c(F)c1` [Example 75, 4-(7-(2-fluoro-4-methanesulfonyl-phenyl)thieno[3,2-d]pyrimidin-4-yloxy)piperidin-1-carbonitrile]: the EC50 lay within 100 to 1000 nM.

Consider `CS(=O)(=O)c1ccc(-c2csc3c(OC4CCNCC4)ncnc23)c(F)c1` [Example 76, 7-(2-fluoro-4-methanesulfonyl-phenyl)-4-[piperidin-4-yloxy]thieno[3,2-d]pyrimidine], for which the EC50 was over 1000 nM. For `CS(=O)(=O)c1ccc(-c2csc3c(OC4CCN(c5nc6ccccc6o5)CC4)ncnc23)c(F)c1` [Example 77, 2-(4-(7-(2-fluoro-4-methanesulfonyl-phenyl)thieno[3,2-d]pyrimidin-4-yloxy)piperidin-1-yl)benzo[d]oxazole], the EC50 is under 100 nM. Turning to `CC(C)Cc1noc(N2CCC(Oc3ncnc4c(-c5ccc(S(C)(=O)=O)cc5F)csc34)CC2)n1` [Example 78, 7-(2-fluoro-4-methanesulfonyl-phenyl)-4-[1-(3-isobutyl-[1,2,4]oxadiazol-5-yl)piperidin-4-yloxy]thieno[3,2-d]pyrimidine], the EC50 is under 100 nM. With `CS(=O)(=O)c1ccc(-c2csc3c(OC4CCN(c5nc(C6CCCCC6)no5)CC4)ncnc23)c(F)c1` [Example 79, 7-(2-fluoro-4-methanesulfonyl-phenyl)-4-[1-(3-cyclohexyl-[1,2,4]oxadiazol-5-yl)piperidin-4-yloxy]thieno[3,2-d]pyrimidine], the EC50 is under 100 nM.

Turning to `CS(=O)(=O)c1ccc(-c2csc3c(OC4CCN(c5nc(C6CC7CCC6C7)no5)CC4)ncnc23)c(F)c1` (centres unmarked) [Example 80, 7-(2-fluoro-4-methanesulfonyl-phenyl)-4-[1-(3-bicyclo[2,2,1]heptan-2-yl[1,2,4]oxadiazol-5-yl)piperidin-4-yloxy]thieno[3,2-d]pyrimidine], the EC50 was under 100 nM. Consider `CCc1cnc(N2CCC(Oc3ncnc4c(-c5ccc(S(C)(=O)=O)cc5F)csc34)CC2)nc1` [Example 81, 4-[1-(5-ethylpyrimidin-2-yl)-piperidin-4-yloxy]-7-(2-fluoro-4-methanesulfonyl-phenyl)-thieno[3,2-d]pyrimidine], for which the EC50 was under 100 nM.
